In brackets after ≈: the same amount, converted by molar mass.
Legend:
[1] = tested on: Staphylococcus aureus; test: Antimicrobial activity against methicillin-sensitive Staphylococcus aureus; format: functional
[2] = tested on: Staphylococcus aureus; test: Antimicrobial activity against methicillin-resistant Staphylococcus aureus; format: functional
[3] = tested on: Micrococcus luteus; test: Antimicrobial activity against Micrococcus luteus; format: functional
[4] = tested on: Bacillus subtilis; test: Antimicrobial activity against Bacillus subtilis; format: functional
[5] = tested on: Escherichia coli; test: Antimicrobial activity against Escherichia coli; format: functional
[6] = tested on: Klebsiella pneumoniae; test: Antimicrobial activity against Klebsiella pneumoniae; format: functional
[7] = tested on: Pseudomonas aeruginosa; test: Antimicrobial activity against Pseudomonas aeruginosa; format: functional
[8] = tested on: Citrobacter freundii; test: Antimicrobial activity against Citrobacter freundii by liquid microdilution assay; format: functional
[9] = tested on: Escherichia coli; test: Antimicrobial activity against Escherichia coli by liquid microdilution assay; format: functional
[10] = tested on: Shigella dysenteriae; test: Antimicrobial activity against Shigella dysenteriae by liquid microdilution assay; format: functional
[11] = tested on: Pseudomonas aeruginosa; test: Antimicrobial activity against Pseudomonas aeruginosa by liquid microdilution assay; format: functional
[12] = tested on: Klebsiella pneumoniae; test: Antimicrobial activity against Klebsiella pneumoniae by liquid microdilution assay; format: functional
[13] = tested on: Salmonella typhi; test: Antimicrobial activity against Salmonella typhi by liquid microdilution assay; format: functional, Salmonella enterica subsp. enterica serovar Typhi; conditions: Salmonella enterica
[14] = tested on: Enterococcus faecalis; test: Antimicrobial activity against Streptococcus faecalis by liquid microdilution assay; format: functional
[15] = tested on: Microsporum audouinii; test: Antimicrobial activity against Microsporum audouinii by liquid microdilution assay; format: functional
[16] = tested on: Escherichia coli; test: Microbicidal activity against Escherichia coli by liquid microdilution assay; format: functional
[17] = tested on: Shigella dysenteriae; test: Microbicidal activity against Shigella dysenteriae by liquid microdilution assay; format: functional
[18] = tested on: Pseudomonas aeruginosa; test: Microbicidal activity against Pseudomonas aeruginosa by liquid microdilution assay; format: functional
[19] = tested on: Klebsiella pneumoniae; test: Microbicidal activity against Klebsiella pneumoniae by liquid microdilution assay; format: functional
[20] = tested on: Salmonella typhi; test: Microbicidal activity against Salmonella typhi by liquid microdilution assay; format: functional, Salmonella enterica subsp. enterica serovar Typhi; conditions: Salmonella enterica
[21] = tested on: Enterococcus faecalis; test: Microbicidal activity against Streptococcus faecalis by liquid microdilution assay; format: functional
[22] = tested on: Microsporum audouinii; test: Microbicidal activity against Microsporum audouinii by liquid microdilution assay; format: functional
[23] = target: T1, Hypoxia-inducible factor 1-alpha (Homo sapiens, UniProt Q16665); test: Inhibition of HIF-1alpha in human Hep3B cells cotransfected with pGL3-HRE-luciferase plasmid at > 50 uM after 24 hrs by dual-luciferase reporter assay; format: cell-based; conditions: hep 3b2
T1 sequence (Q16665 whole entry): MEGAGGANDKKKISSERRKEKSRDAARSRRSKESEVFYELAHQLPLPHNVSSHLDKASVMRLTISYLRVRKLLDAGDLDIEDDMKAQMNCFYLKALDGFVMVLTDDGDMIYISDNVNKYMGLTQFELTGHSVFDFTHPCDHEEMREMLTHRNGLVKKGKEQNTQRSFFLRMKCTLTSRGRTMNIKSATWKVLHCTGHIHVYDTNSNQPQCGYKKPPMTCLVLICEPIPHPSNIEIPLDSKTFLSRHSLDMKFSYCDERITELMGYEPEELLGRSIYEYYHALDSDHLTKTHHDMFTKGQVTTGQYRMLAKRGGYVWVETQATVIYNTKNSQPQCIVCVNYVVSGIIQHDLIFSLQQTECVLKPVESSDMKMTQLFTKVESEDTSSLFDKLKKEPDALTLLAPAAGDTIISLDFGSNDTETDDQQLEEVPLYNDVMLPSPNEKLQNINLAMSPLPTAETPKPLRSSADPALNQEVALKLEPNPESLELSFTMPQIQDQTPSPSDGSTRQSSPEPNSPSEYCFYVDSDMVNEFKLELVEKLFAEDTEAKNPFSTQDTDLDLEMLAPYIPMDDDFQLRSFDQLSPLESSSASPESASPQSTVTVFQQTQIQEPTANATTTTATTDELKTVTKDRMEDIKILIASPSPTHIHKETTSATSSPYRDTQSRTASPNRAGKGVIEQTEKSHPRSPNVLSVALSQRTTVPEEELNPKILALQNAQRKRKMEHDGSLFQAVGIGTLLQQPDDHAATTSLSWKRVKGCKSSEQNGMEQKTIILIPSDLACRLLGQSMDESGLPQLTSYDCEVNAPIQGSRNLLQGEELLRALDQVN

[24] = target: T1, Hypoxia-inducible factor 1-alpha; test: Inhibition of HIF-1alpha in human Hep3B cells assessed as decrease in VEGF level at > 50 uM after 20 hrs by ELISA; format: cell-based; conditions: hep 3b2
[25] = Cytotoxicity against human Hep3B cells assessed as cell viability after 24 hrs by MTT assay; format: cell-based, Hep 3B2
[26] = tested on: Mus musculus; test: Hypoglycemic activity in alloxan-induced diabetic mouse assessed as fasting blood glucose level at 50 mg/kg; format: functional
[27] = tested on: Mus musculus; test: Hypoglycemic activity in alloxan-induced diabetic mouse assessed as fasting blood glucose level at 10 mg/kg; format: functional
[28] = Antiinflammatory activity against rat PMN assessed as inhibition of PAF-induced beta-glucuronidase release relative to control; format: functional
[29] = tested on: A549; test: Cytotoxicity against human A549 cells after 96 hrs by MTT assay; format: functional, cell-based; conditions: A549, 96 h
[30] = Cytotoxicity against human Bel7402 cells after 96 hrs by MTT assay; format: functional, cell-based; conditions: Bel-7402, 96 h
[31] = Cytotoxicity against human BGC823 cells after 96 hrs by MTT assay; format: functional, cell-based; conditions: BGC-823, 96 h
[32] = Cytotoxicity against human HCT8 cells after 96 hrs by MTT assay; format: functional, cell-based; conditions: HCT-8, 96 h
[33] = tested on: A2780; test: Cytotoxicity against human A2780 cells after 96 hrs by MTT assay; format: functional, cell-based; conditions: A2780, 96 h
[34] = tested on: Morus alba; test: Antioxidant activity in mulberry leaves assessed as UV-stress-induced free radical scavenging activity measured as inhibition of blue formazan at 100 uM; format: functional
[35] = Inhibition of alpha-glucosidase (unknown origin); design: species or system Homo sapiens
[36] = target: Tyrosinase (Agaricus bisporus, UniProt O42713); test: Inhibition of mushroom tyrosinase
Chain of Tyrosinase (O42713 whole entry): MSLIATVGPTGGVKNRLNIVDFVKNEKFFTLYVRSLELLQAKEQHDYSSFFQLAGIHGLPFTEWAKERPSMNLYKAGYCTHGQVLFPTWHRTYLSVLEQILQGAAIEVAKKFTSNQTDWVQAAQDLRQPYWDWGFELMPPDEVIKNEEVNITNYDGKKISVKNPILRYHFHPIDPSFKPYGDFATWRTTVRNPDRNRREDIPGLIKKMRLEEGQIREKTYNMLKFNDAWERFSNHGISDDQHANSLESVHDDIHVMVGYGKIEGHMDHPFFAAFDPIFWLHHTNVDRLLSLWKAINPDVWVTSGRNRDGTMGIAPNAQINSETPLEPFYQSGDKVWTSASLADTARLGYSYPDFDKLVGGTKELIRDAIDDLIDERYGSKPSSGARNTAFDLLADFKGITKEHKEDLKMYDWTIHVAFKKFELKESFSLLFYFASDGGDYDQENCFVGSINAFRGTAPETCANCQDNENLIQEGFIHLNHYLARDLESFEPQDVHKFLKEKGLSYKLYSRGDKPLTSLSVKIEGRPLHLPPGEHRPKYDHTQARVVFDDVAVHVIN

[37] = Antifungal activity against Fusarium roseum; format: functional
[38] = Antifungal activity against Fusarium lateritium f. sp. mori; format: functional
[39] = Antifungal activity against Fusarium solani f. sp. mori; format: functional
[40] = Antifungal activity against Diaporthe nomurai; format: functional
[41] = Antifungal activity against Stigmina mori; format: functional
[42] = tested on: Rosellinia necatrix; test: Antifungal activity against Rosellinia necatrix; format: functional
[43] = Antifungal activity against Cochliobolus miyabeanus; format: functional; conditions: Bipolaris oryzae
[44] = tested on: RAW264.7; test: Antiinflammatory activity against mouse RAW264.7 cells assessed as reduction of IFNgamma-induced NO production; format: functional, cell-based
[45] = tested on: RAW264.7; test: Antiinflammatory activity against mouse RAW264.7 cells assessed as reduction of LPS-induced NO production; format: functional, cell-based
[46] = target: Enoyl-[acyl-carrier-protein] reductase [NADPH] FabI (Staphylococcus aureus, UniProt Q6GI75); test: Inhibition of Staphylococcus aureus FabI-mediated trans-2-octenoyl N-acetylcysteamine (t-o-NAC thioester) substrate reduction assessed as decrease in NADPH […]
Chain of Enoyl-[acyl-carrier-protein] reductase [NADPH] FabI (Q6GI75 whole entry): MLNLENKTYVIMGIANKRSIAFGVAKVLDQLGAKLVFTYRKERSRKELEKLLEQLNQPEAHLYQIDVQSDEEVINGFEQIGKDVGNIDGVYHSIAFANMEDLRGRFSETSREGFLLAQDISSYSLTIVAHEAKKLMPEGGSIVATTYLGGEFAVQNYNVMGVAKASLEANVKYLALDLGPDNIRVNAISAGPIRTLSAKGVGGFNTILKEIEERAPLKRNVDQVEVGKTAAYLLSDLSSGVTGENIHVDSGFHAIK

[47] = tested on: Staphylococcus aureus; test: Antimicrobial activity against Staphylococcus aureus RN4220 assessed as inhibition of cell growth by broth microdilution method; format: functional
[48] = tested on: Staphylococcus aureus; test: Antimicrobial activity against methicillin-resistant Staphylococcus aureus CCARM3167 assessed as inhibition of cell growth by broth microdilution method; format: functional
[49] = tested on: Staphylococcus aureus; test: Inhibition of fatty acid biosynthesis in Staphylococcus aureus assessed as incorporation of [1-14C]acetate by scintillation counting analysis; format: functional, organism-based
[50] = tested on: Staphylococcus aureus; test: Inhibition of protein biosynthesis in Staphylococcus aureus assessed as incorporation of [14C]leucine by scintillation counting analysis; format: functional, organism-based
[51] = tested on: Bacillus cereus; test: Antimicrobial activity against Bacillus cereus by liquid microdilution assay; format: functional
[52] = tested on: Staphylococcus aureus; test: Antimicrobial activity against Staphylococcus aureus by liquid microdilution assay; format: functional
[53] = tested on: Candida albicans; test: Antimicrobial activity against Candida albicans by liquid microdilution assay; format: functional
[54] = tested on: Citrobacter freundii; test: Microbicidal activity against Citrobacter freundii by liquid microdilution assay; format: functional
[55] = tested on: Bacillus cereus; test: Microbicidal activity against Bacillus cereus by liquid microdilution assay; format: functional
[56] = tested on: Staphylococcus aureus; test: Microbicidal activity against Staphylococcus aureus by liquid microdilution assay; format: functional
[57] = tested on: Candida albicans; test: Microbicidal activity against Candida albicans by liquid microdilution assay; format: functional
[58] = Antioxidant activity in liver (unknown origin) assessed as inhibition of Fe2+/cysteine system-induced lipid peroxidation; format: functional, tissue-based; conditions: dose or concentration not given here

Oc1cc(O)cc(-c2cc3ccc(O)cc3o2)c1 [MORACIN M]
MIC [1]: 12.5 µg/mL (≈ 51.6 µM)
MIC [2]: 25 µg/mL (≈ 103 µM)
MIC [3]: 25 µg/mL (≈ 103 µM)
MIC [4]: 100 µg/mL (≈ 413 µM)
MIC [5]: > 100 µg/mL
MIC [6]: > 100 µg/mL
MIC [7]: > 100 µg/mL
MIC [8]: 312 µg/mL (≈ 1290 µM)
MIC [9]: 78 µg/mL (≈ 322 µM)
MIC [10]: 78 µg/mL (≈ 322 µM)
MIC [11]: 156 µg/mL (≈ 644 µM)
MIC [12]: 312 µg/mL (≈ 1290 µM)
MIC [13]: 78 µg/mL (≈ 322 µM)
MIC [14]: 78 µg/mL (≈ 322 µM)
MIC [15]: 78 µg/mL (≈ 322 µM)
MBC [16]: 625 µg/mL (≈ 2580 µM)
MBC [17]: 156 µg/mL (≈ 644 µM)
MBC [18]: 625 µg/mL (≈ 2580 µM)
MBC [19]: 625 µg/mL (≈ 2580 µM)
MBC [20]: 156 µg/mL (≈ 644 µM)
MBC [21]: 156 µg/mL (≈ 644 µM)
MFC [22]: 312 µg/mL (≈ 1290 µM)
IC50 [23]: Not Active
IC50 [24]: Not Active
IC50 [25]: > 30 µM
Activity [26]: 20.08 mmol/L
Activity [27]: 18.52 mmol/L
inhibition (INH) [28]: 54%

CC(C)=CCc1cc2cc(-c3cc(O)cc(O)c3)oc2cc1O [MORACIN N]
MIC [5]: > 100 µg/mL
MIC [6]: > 100 µg/mL
MIC [7]: > 100 µg/mL
IC50 [29]: > 10 µg/mL
IC50 [30]: > 10 µg/mL
IC50 [31]: > 10 µg/mL
IC50 [32]: > 10 µg/mL
IC50 [33]: > 10 µg/mL
inhibition [34]: 76%
IC50 [35]: 2.76 µM
IC50 [36]: 0.924 µM

CC1(C)C=Cc2c(O)cc(-c3cc4ccc(O)cc4o3)cc2O1 [MORACIN D]
MIC [5]: > 100 µg/mL
MIC [6]: > 100 µg/mL
MIC [7]: > 100 µg/mL
MIC [37]: 7 µg/mL (≈ 22.7 µM)
MIC [38]: 28 µg/mL (≈ 90.8 µM)
MIC [39]: 112 µg/mL (≈ 363 µM)
MIC [40]: 7 µg/mL (≈ 22.7 µM)
MIC [41]: 56 µg/mL (≈ 182 µM)
MIC [42]: < 3.5 µg/mL
MIC [43]: 14 µg/mL (≈ 45.4 µM)
IC50 [35]: 2.54 µM
IC50 [44]: 18 µM
IC50 [45]: 18 µM

CC(C)=CCc1c(O)cc(-c2cc3ccc(O)cc3o2)cc1O [MORACIN C]
MIC [1]: 6.25 µg/mL (≈ 20.1 µM)
MIC [2]: 12.5 µg/mL (≈ 40.3 µM)
MIC [3]: 12.5 µg/mL (≈ 40.3 µM)
MIC [4]: 3.13 µg/mL (≈ 10.1 µM)
MIC [5]: > 100 µg/mL
MIC [6]: > 100 µg/mL
MIC [7]: > 100 µg/mL
IC50 [46]: 83.8 µM
MIC [47]: 32 µg/mL (≈ 103 µM)
MIC [48]: 32 µg/mL (≈ 103 µM)
IC50 [49]: 74.8 µM
IC50 [50]: 188 µM
MIC [8]: 156 µg/mL (≈ 503 µM)
MIC [9]: 39 µg/mL (≈ 126 µM)
MIC [10]: 5 µg/mL (≈ 16.1 µM)
MIC [11]: 10 µg/mL (≈ 32.2 µM)
MIC [12]: 312 µg/mL (≈ 1010 µM)
MIC [13]: 10 µg/mL (≈ 32.2 µM)
MIC [51]: 78 µg/mL (≈ 251 µM)
MIC [52]: 78 µg/mL (≈ 251 µM)
MIC [14]: 39 µg/mL (≈ 126 µM)
MIC [53]: 68 µg/mL (≈ 219 µM)
MIC [15]: 78 µg/mL (≈ 251 µM)
MBC [54]: 625 µg/mL (≈ 2010 µM)
MBC [16]: 78 µg/mL (≈ 251 µM)
MBC [17]: 39 µg/mL (≈ 126 µM)
MBC [18]: 39 µg/mL (≈ 126 µM)
MBC [19]: 625 µg/mL (≈ 2010 µM)
MBC [20]: 39 µg/mL (≈ 126 µM)
MBC [55]: 156 µg/mL (≈ 503 µM)
MBC [56]: 156 µg/mL (≈ 503 µM)
MBC [21]: 78 µg/mL (≈ 251 µM)
MFC [57]: 156 µg/mL (≈ 503 µM)
MFC [22]: 312 µg/mL (≈ 1010 µM)
MIC [37]: 3.5 µg/mL (≈ 11.3 µM)
MIC [38]: 7 µg/mL (≈ 22.6 µM)
MIC [39]: 224 µg/mL (≈ 722 µM)
MIC [40]: 14 µg/mL (≈ 45.1 µM)
MIC [41]: 112 µg/mL (≈ 361 µM)
MIC [42]: 3.5 µg/mL (≈ 11.3 µM)
MIC [43]: 28 µg/mL (≈ 90.2 µM)
inhibition [58]: 73%
inhibition [34]: 64%
IC50 [35]: 4.04 µM
IC50 [44]: 8 µM
IC50 [45]: 8 µM
inhibition (INH) [28]: 100%

CC1(C)Oc2cc3oc(-c4cc(O)cc(O)c4)cc3cc2CC1O (stereo not drawn) [(+/-)-MORACIN P]
MIC [1]: 50 µg/mL (≈ 153 µM)
MIC [2]: 100 µg/mL (≈ 306 µM)
MIC [3]: 100 µg/mL (≈ 306 µM)
MIC [4]: 100 µg/mL (≈ 306 µM)
MIC [5]: > 100 µg/mL
MIC [6]: > 100 µg/mL
MIC [7]: > 100 µg/mL
IC50 [25]: > 30 µM
IC50 [36]: 2.9 µM
IC50 [44]: 19.3 µM
IC50 [45]: 19.3 µM
